Experimental data reported in ChEMBL document CHEMBL3044950, “Insecticidal activity of Paraherquamides, including paraherquamide H and paraherquamide I, two new alkaloids isolated from Penicillium cluniae” (2006).

What follows are compounds tested on Oncopeltus fasciatus (assay: Insecticidal activity against Oncopeltus fasciatus fourth-instar nymphs assessed as induction of insect mortality after compound topical application measured 72 hr post compound application).
Format: functional
Work on `CN1C(=O)[C@@]23CCCN2C[C@@]12C[C@@]1(C(=O)Nc4c1ccc1c4OC=CC(C)(C)O1)C(C)(C)[C@@H]2C3` [PARAHERQUAMIDE B] yielded an LD50 of 16.54 µg. `C[C@H]1CCN2C[C@]34C[C@@]5(C(=O)Nc6c5ccc5c6OC=CC(C)(C)O5)C(C)(C)[C@@H]3C[C@]12C(=O)N4C` [PARAHERQUAMIDE E] showed an LD50 of 0.089 µg. In the case of `CN1C(=O)[C@]23C[C@H]4C(C)(C)[C@@]5(C[C@@]41C[N+]2([O-])CC[C@@]3(C)O)C(=O)Nc1c5ccc2c1OC=CC(C)(C)O2` (stereo not given in full) [N-OXIDE PARAHERQUAMIDE], the LD50 was 7.01 µg. In the case of `CN1C(=O)[C@]23C[C@H]4C(C)(C)[C@@]5(C[C@@]41CN2C(=O)C[C@@]3(C)O)C(=O)Nc1c5ccc2c1OC=CC(C)(C)O2`, the LD50 was 0.91 µg. Work on `CN1C(=O)[C@]23C[C@@H]4C(C)(C)[C@@]5(C[C@@]41CN2CC[C@@]3(C)O)C(=O)Nc1c5ccc2c1OC=CC(C)(C)O2` [Paraherquamide A] yielded an LD50 of 0.32 µg.
